In brackets after ≈: the same amount, converted by molar mass. Read-outs that look alike come from different tables or passages of the source.
Columns and labels:
[1] = test system: panel of gram-positive and gram-negative bacteria; assay: MIC against panel of bacteria; format: cell-based; conditions: read-out: MIC vs B. subtilis and M. luteus
Method: After completing the syntheses, the antibacterial activity of A‐variations 4–24 was assessed by determination of MIC values against a basic set of gram‐negative and gram‐positive bacteria (Table 1). The monocyclic derivatives 4–8 featuring a cyano‐, trifluoromethyl‐, methoxy‐ and fluoro‐ substituent in para‐position were very active against the gram–negative E. coli and S. typhimurium strains with MIC values in the same range as 3rd Gen albicidin 3 or ciprofloxacin which is the gold standard for gyrase inhibitors. […] These findings are in agreement with previous studies showing good activities for cyano, trifluoromethyl, methoxy and fluoro substituents in the para‐position of different aromatic rings in the building block A.[12, 13] The activity of the monocyclic derivatives 4–8 against the gram‐positive strains B. subtilis and M. luteus were similar but slightly less pronounced compared to the lead structure 3.
1.1 Determination of Minimal Inhibitory Concentrations (MIC)
Minimal inhibitory concentration (MIC) against selected bacterial strains values were determined according to the ninth edition of the Approved Standard M07-A9.[1] 20 μL of cryo stocks of bacterial strains were suspended in 20 mL LB medium (Lysogeny broth: 10 g/L peptone, 5 g/L yeast extract, 5 g/L NaCl). Following incubation overnight at 37°C, 200 rpm, the test inoculum was adjusted by 0.5 McFarland Standard in cation adjusted Mueller-Hinton broth (BBLTM Mueller-Hinton Broth II, Becton, Dickinson and Company, New Jersey, USA) to approximately 1x10^6 CFU mL-1. 95 μL of the bacterial inoculum were applied per well of a 96-well plate. Albicidin and albicidin derivatives 3−24 were dissolved in DMSO (100%) to an initial concentration of 2560 μg/mL and serially diluted in DMSO (100%). Initial solution and serial dilutions of Ciprofloxacin were prepared in 0.1 N HCL, respectively. […] Both microdilution trays and agar plates were incubated at 30−37°C for 16 h and subsequently analyzed for growth inhibition by naked eye. […]

E. coli DSM1116 = test system: E. coli DSM1116; design: method as in PMID 36741192; conditions: already published elsewhere; cited from earlier work
AlbAL = assay: Transcription activation (TA) reporter assay, pAlbA-ilux luminescence; format: cell-based, Klebsiella oxytoca; conditions: luminescence normalized to 2nd Gen albicidin 2
Method: Finally, we investigated if synthetic variations of building block A are able to evade the effects of the resistance protein AlbA. Therefore, we carried out a qualitative growth inhibition assay with derivatives 4–24 in presence of an equimolar amount of purified AlbAS. After incubation of the cultures overnight, the growth of the bacteria was evaluated. The ability of AlbAS to sufficiently sequester an albicidin derivative from the supernatant allowed E. coli cells to accumulate in a visible cell pellet. Second, we performed a quantitative transcription‐activation reporter assay[22] to assess transcriptional regulation by AlbAL. The promoter sequence pAlbA was inserted into a reporter vector that encodes the ilux luminescence cassette.[22] The luminescence signals elicited by ligand binding of synthetic variations to AlbAL was compared and normalized to the signal induced by 2nd Gen albicidin 2 and are hereby referred to as relative transcription activation (TA^%). The combination of both assays prompted us to categorize the experimental outcomes (Figure 4) in four groups:
Figure 4 Characterization of AlbA resistance against derivatives 2, 4–24. GIA: Qualitative growth inhibition assay against E. coli DSM 1116. (−): Derivative unable to inhibit the growth of E. coli in presence of AlbAS. (+): Derivative inhibits growth of E. coli in presence of AlbAS. […] For details see SI Figure 9. Transcription activation (TA) assay: luminescence elicited by 2nd Gen albicidin 2 from the TA assay was normalized to 100 % and the luminescence signal of tested derivatives provided: relative luminescence [%]=luminescence [derivative]/luminescence [2]×100 %. Green bars indicate low relative luminescence (<40 %) and red bars indicate high relative luminescence (>50 %). Error bars show the standard deviations of triplicate measurements. TEXT PRINTED IN THE PICTURE: 2: E. coli inhibition +AlbA: − | 4: E. coli inhibition +AlbA: + | 9: E. coli inhibition +AlbA: + | 11: E. coli inhibition +AlbA: + | 12: E. coli inhibition +AlbA: + | 13: E. coli inhibition +AlbA: ~ | 14: E. coli inhibition +AlbA: − | 16: E. coli inhibition +AlbA: − | 17: E. coli inhibition +AlbA: − | 18: E. coli inhibition +AlbA: − | 19: E. coli inhibition +AlbA: − | 20: E. coli inhibition +AlbA: + | 21: E. coli inhibition +AlbA: − | 22: E. coli inhibition +AlbA: − | 23: E. coli inhibition +AlbA: − | 24: E. coli inhibition +AlbA: − […]
Transcription activation (TA) assay
Transcription reporter assays were conducted as described previously.[4] In short, E. coli BL21(DE3) were transformed with pET15b-AlbA, an expression construct without His-tag, and pCS-pAlbA-ilux, a reporter vector containing the pAlbA promoter and the improved bacterial luciferase reporter gene cassette ILUX.[7] […] Sixty data points were measured on a TECAN Infinite 200 microplate reader, after orbital shaking with for 10 min, with an amplitude of 3 mm, and a wait time of one minute between each measurement. At each time point, the absorbance at 600 nm ([…] bandwidth and 25 flashes) and the luminescence (500 ms integration time, no attenuation) were measured. Each assay was measured in triplicate at 30°C. The luminescence data was normalized to the OD before the background signal (wells with no albicidin added) was subtracted and the mean + standard deviation of each measurement point was calculated. […]

[2] = gram-positive bacteria B. subtilis and M. luteus

| SMILES | relative transcription activation (TA%), in words (AlbAL) | further results |
| --- | --- | --- |
| COc1c(NC(=O)c2ccc(NC(=O)c3ccc(NC(=O)[C@H](Cc4c[nH]nn4)NC(=O)c4ccc(NC(=O)c5ccc6ccccc6n5)cc4)cn3)c(OC)c2O)ccc(C(=O)O)c1O [compound 11] |  | MIC [1, 2]: ≤ 0.016 µg/mL |
| COc1c(NC(=O)c2ccc(NC(=O)c3ccc(NC(=O)[C@H](Cc4c[nH]nn4)NC(=O)c4ccc(NC(=O)c5cc6ccccc6cn5)cc4)cn3)c(OC)c2O)ccc(C(=O)O)c1O [compound 12] |  | MIC [1]: 0.063 µg/mL (≈ 0.0715 µM) |
| COc1c(NC(=O)c2ccc(NC(=O)c3ccc(NC(=O)[C@H](Cc4c[nH]nn4)NC(=O)c4ccc(NC(=O)c5cnc6ccccc6c5)cc4)cn3)c(OC)c2O)ccc(C(=O)O)c1O [compound 13] |  | MIC [1, 2]: 0.125 µg/mL (≈ 0.142 µM) |
| COc1c(NC(=O)c2ccc(NC(=O)c3ccc(NC(=O)[C@H](Cc4c[nH]nn4)NC(=O)c4ccc(NC(=O)c5ccc6nc(C)ccc6c5)cc4)cn3)c(OC)c2O)ccc(C(=O)O)c1O [compound 16] |  | MIC E. coli DSM1116 (E. coli DSM1116): 0.016 µg/mL (≈ 0.0179 µM) |
| CCn1cc(C(=O)Nc2ccc(C(=O)N[C@@H](Cc3c[nH]nn3)C(=O)Nc3ccc(C(=O)Nc4ccc(C(=O)Nc5ccc(C(=O)O)c(O)c5OC)c(O)c4OC)nc3)cc2)c(=O)c2ccc(C)nc21 [compound 18] | low |  |
| CCn1cc(C(=O)Nc2ccc(C(=O)N[C@@H](Cc3c[nH]nn3)C(=O)Nc3ccc(C(=O)Nc4ccc(C(=O)Nc5ccc(C(=O)O)c(O)c5OC)c(O)c4OC)nc3)cc2)c(=O)c2cc3c(cc21)OCO3 [compound 19] | low |  |
| COc1c(NC(=O)c2ccc(NC(=O)c3ccc(NC(=O)[C@H](Cc4c[nH]nn4)NC(=O)c4ccc(NC(=O)c5cc6cc(O)ccc6[nH]5)cc4)cn3)c(OC)c2O)ccc(C(=O)O)c1O [compound 21] | intermediate |  |
| COc1c(NC(=O)c2ccc(NC(=O)c3ccc(NC(=O)[C@H](Cc4c[nH]nn4)NC(=O)c4ccc(NC(=O)c5ccc6nc[nH]c6c5)cc4)cn3)c(OC)c2O)ccc(C(=O)O)c1O [compound 23] | low |  |
| COc1c(NC(=O)c2ccc(NC(=O)c3ccc(NC(=O)[C@H](Cc4c[nH]nn4)NC(=O)c4ccc(NC(=O)c5ccc6nn[nH]c6c5)cc4)cn3)c(OC)c2O)ccc(C(=O)O)c1O [compound 24] | low |  |
